This is an account of results in patent publication US20150133434A1, “Compositions and Methods for Reactivating Latent Immunodeficiency Virus” (priority 2012, published 2015).

SMILES strings stand for the structures. “Also recorded” adds a separate entry of the source.

In experiment [1] the test system is HIV LTR-GFP in J-Lat A72 cells. Briefly: JQ1 response in A72 cells after shRNA knockdown (cyclin T1, BRD2, BRD4), flow cytometry of GFP. The format is cell-based. The procedure:
ShRNA-expressing lentiviral vectors were purchased from Open Biosystems. The plasmids TRCN0000006308 and TRCN0000006310 were used to deplete BRD2, plasmids TRCN0000021424 and TRCN0000021428 were used to deplete BRD4, and plasmids TRCN0000013673 and TRCN0000013675 were used to deplete cyclin T1. The pLKO.1 vector containing scramble shRNA was used as control. […]. J-Lat A72 cells (containing a LTR-GFP construct) were spininfected with virus (1 ng of p24 per 10^6 cells) containing shRNAs against BRD2, BRD4, cyclin T1 or nontargeting control shRNAs and were selected with puromycin (2 μg/ml; Sigma) (Naldini L, et al., Science 1996; 272:263-7). After 4 days of selection, cells were treated with the indicated concentration of drugs. The percentage of GFP^+ cells was determined after 18 h using a MACSQuant VYB FACS analyzer (Miltenyi Biotech GmbH). Cell viability was monitored by forward and side scatter analysis. Analysis was conducted on 3×10,000 live cells per condition, and all experiments were independently repeated at least three times. Data were analyzed using FlowJo 9.4 (Tree Star).
As transcription elongation at the HIV promoter uniquely depends on P-TEFb, whether the JQ1 effect in latent cells requires intact P-TEFb was determined. Short hairpin RNAs (shRNAs) directed against cyclin T1, an important component of P-TEFb, were introduced into A72 cells with lentiviral vectors. Knockdown of cyclin T1 yielded lower basal levels in GFP^+ cells than control cells expressing nontargeting shRNAs (FIG. 25A).
To test the functional relevance of BET proteins in HIV latency, lentiviral shRNA knockdown studies of endogenous BRD2 and BRD4 proteins were performed in A72 cells lacking Tat. BRD2 is a close relative of BRD4, but lacks a C-terminal PID domain. […] BRD2 binds JQ1 and other BET inhibitors, albeit with lower binding affinities than BRD4.
(A) A72 cells were infected with virus containing shRNA constructs targeting cyclin T1 or a nontargeting control. Knockdown of cyclin T1 protein levels are shown by immunoblotting with cyclin T1 or the control α-tubulin antibody. At 4 days after infection, cells were treated with JQ1 or DMSO at the indicated concentrations for 18 h and analyzed by flow cytometry. […] Average (±SD) of three experiments is shown. (B) A72 cells were infected with virus containing shRNA constructs targeting BRD2, BRD4 or a nontargeting control. At 4 days after infection, cells were treated with JQ1 or DMSO at the indicated concentrations for 18 h and examined by flow cytometry. […] Results represent average (±SD) of three experiments. Knockdown of BRD2 and BRD4 protein levels were confirmed by immunoblotting with BRD2 and BRD4 antibodies or the control α-tubulin. All treatments in (A) and (B) on the X axis are in μM.
A general note: In flow cytometry, cells or beads pass a laser one at a time.

Experiment [2] relates to latent LTR-Tat-IRES-GFP construct in J-Lat A2 cells. Briefly: J-Lat A2 cells (LTR-Tat-IRES-GFP), flow cytometry of GFP. Type of experiment: cell-based, HIV-1. The procedure: (§1) HEK293T and Jurkat cells were obtained from the American Type Culture Collection. J-Lat (clones A2 and A72) cell lines were described. HEK293T cells were cultured in DMEM supplemented with 10% FBS, 1% L-glutamine and 1% penicillin-streptomycin (Life Technologies). Jurkat and J-Lat cells were cultured in RPMI supplemented with 10% FBS, 1% L-glutamine, and 1% penicillin-streptomycin. TNFα (Sigma-Aldrich) was used at concentrations of 0.25 or 1 ng/ml. Human αCD3 and αCD28 (BD Biosciences) were used at concentrations of 3 and 1 μg/ml, respectively. Prostratin (Sigma) was used at a suboptimal concentration of 0.5 μM, and SAHA (NCI Chemical Carcinogen Repository, Midwest Research Institute) was used at 2.5 μM.
(§2) To determine if BET inhibition specifically activates Tat-dependent transcription, a J-Lat cell line was utilized that harbored a latent lentiviral construct expressing Tat with GFP from the HIV LTR (clone A2; LTR-Tat-IRES-GFP). […] Stimulation with JQ1 yielded up to ninefold more GFP-expressing cells than control-treated cells, and a 22-fold increase was observed when cells were co-treated with JQ1 and low doses of TNFα (FIG. 21A). […] Here, an up to 22-fold increase in GFP^+ cells resulted from JQ1 treatment alone and a 45-fold increase when TNFα was added with JQ1 (FIG. 21B). Both cell lines were also treated with prostratin and SAHA (FIG. 27).
(§3) Two latent J-Lat cell lines A2 (containing a LTR-Tat-IRES-GFP construct) or A72 (containing a LTR-GFP construct) were treated with JQ1 or (R)-JQ1 in combination with TNFα or control at the indicated concentrations for 18 h, followed by flow cytometry analysis. […] Data represent average (±SD) of three independent experiments. All treatments in (A) and (B) on the X axis are in μM.

In experiment [3] the test system is latent LTR-GFP construct in J-Lat A72 cells. Briefly: J-Lat A72 cells (LTR-GFP lacking Tat), flow cytometry of GFP. The format is cell-based, HIV-1. The procedure: as §1, §2, §3

In the case of `Cc1sc2c(c1C)C(c1ccc(Cl)cc1)=N[C@@H](CC(=O)OC(C)(C)C)c1nnc(C)n1-2` [JQ1, tert-Butyl 2-((6S)-4-(4-chlorophenyl)-2,3,9-trimethyl-6H-thieno[3,2-f][1,2,4]triazolo[4,3-a][1,4]diazepin-6-yl)acetate], the “activation of the HIV LTR in response to JQ1” value in experiment [1] (BRD2 knockdown cells) is “twofold”; in experiment [1] (control cells (nontargeting shRNA)), 3.3 fold. Moreover, in experiment [1] (BRD4 knockdown cells), the “response to JQ1” value was “not affected”. Further, the “cells responding with GFP expression to JQ1, relative to control cells” value in experiment [1] (cyclin T1 knockdown cells) is on record as “half as many cells responded”. For the same compound, the “activation of HIV transcription (GFP)” value in experiment [2] (18 h) is “activated HIV transcription in a dose-dependent manner; also recorded: reactivated HIV-1 in a dose-dependent manner; also recorded: increased GFP expression”; in experiment [3] (18 h), “increased GFP expression; also recorded: reactivated HIV-1 in a dose-dependent manner”. Besides, the “effect of adding SAHA to JQ1” value in experiment [2] (FIG. 27) and in experiment [3] (FIG. 27) was “only a very modest increase” in each case. Besides, the “effect of adding prostratin to JQ1” value in experiment [2] (FIG. 27) and in experiment [3] (FIG. 27) was “enhanced the JQ1 effect” throughout. Also, the “GFP-expressing cells relative to control-treated cells” value in experiment [2] (JQ1 alone) is listed as “up to ninefold”. In addition, the “increase in GFP-expressing cells” value in experiment [2] (JQ1 with low doses of TNFα) was 22 fold. Further, the “increase in GFP+ cells” value in experiment [3] (JQ1 alone) is “up to 22 fold”; in experiment [3] (TNFα added with JQ1), 45 fold.
